# From ChEMBL document CHEMBL1681671, “Substrate-controlled chemoselective synthesis and potent cytotoxic activity of novel 5,6,7-triarylpyrido[2,3-d]pyrimidin-4-one derivatives” (Bioorg Med Chem Lett, 2011)
# Tests used:
# [1] = Cytotoxicity against human SW1116 cells assessed as cell proliferation inhibition rate at 0.1 ug/ml after 24 hrs by MTT assay; format: functional; conditions: SW 1116, 24 h
# [2] = Cytotoxicity against human SW1116 cells assessed as cell proliferation inhibition rate at 1 ug/ml after 24 hrs by MTT assay; format: functional; conditions: SW 1116, 24 h
# [3] = Cytotoxicity against human SW1116 cells assessed as cell proliferation inhibition rate at 10 ug/ml after 24 hrs by MTT assay; format: functional; conditions: SW 1116, 24 h
# SGC-7901 = experiment: Cytotoxicity against human SGC7901 cells assessed as cell mortality after 20 hrs by MTT assay; format: functional, cell-based; conditions: SGC-7901, 20 h
Structure (SMILES),inhibition at 0.1 µg/mL [1] [%],inhibition at 1 µg/mL [2] [%],inhibition at 10 µg/mL [3] [%],IC50 (SGC-7901) [µg/mL]
CN(C)c1ccc(C2C(c3ccccc3)=C(c3ccccc3)Nc3nc(N)[nH]c(=O)c32)cc1 (stereo unspecified),20.5,27.9,14,0.79
Nc1nc2c(c(=O)[nH]1)C(c1ccc(Br)cc1)C(c1ccccc1)=C(c1ccccc1)N2 (stereo unspecified),19.8,19.3,12,0.074
Nc1nc2c(c(=O)[nH]1)C(c1ccc(Cl)cc1)C(c1ccccc1)=C(c1ccccc1)N2 (stereo unspecified),14.9,25.1,25.5,0.104
COc1ccccc1[C@@H]1c2c(nc(N)[nH]c2=O)N=C(c2ccccc2)[C@H]1c1ccccc1 (racemic),22.4,6.47,31.6,0.359
COc1ccc(C2C(c3ccccc3)=C(c3ccccc3)Nc3nc(N)[nH]c(=O)c32)cc1 (stereo unspecified),43,29.1,42.8,0.341
Nc1nc2c(c(=O)[nH]1)C(c1ccc3c(c1)OCO3)C(c1ccccc1)=C(c1ccccc1)N2 (stereo unspecified),15.1,34.6,20.6,0.09
COc1ccc([C@@H]2c3c(nc(N)[nH]c3=O)N=C(c3ccccc3)[C@H]2c2ccccc2)cc1OC (racemic),2.24,13.8,23.9,0.606
COc1cc([C@@H]2c3c(nc(N)[nH]c3=O)N=C(c3ccccc3)[C@H]2c2ccccc2)cc(OC)c1OC (racemic),21.8,16.7,36.9,2.98
Nc1nc2c(c(=O)[nH]1)[C@@H](c1ccccc1Cl)[C@H](c1ccccc1)C(c1ccccc1)=N2 (racemic),31.8,27.3,38.7,1.56
Nc1nc2c(c(=O)[nH]1)C(c1ccc(F)cc1)C(c1ccccc1)=C(c1ccccc1)N2 (stereo unspecified),31.6,17.6,50.3,13
Nc1nc2c(c(=O)[nH]1)C(c1cccs1)C(c1ccccc1)=C(c1ccccc1)N2 (stereo unspecified),22.4,37.2,48.3,0.108
COc1cccc2c1C(=O)c1c(O)c3c(c(O)c1C2=O)C[C@@](O)(C(=O)CO)C[C@@H]3O[C@H]1C[C@H](N)[C@H](O)[C@H](C)O1.Cl [DOXORUBICIN HYDROCHLORIDE],,,28.5,0.078
